The source of these data is paper PMC9961069 (Metabolites, 2023).

For one assay, the system named is leukemia. Set-up: method as in PMID 5479856, PMID 5479852, PMID 5241406. The conditions noted are these: early studies in the 1970s; cited from earlier work.
In another assay the test system is MCF-7 cells. The assay can be described thus: Resazurin viability assay with or without folinic acid, MCF-7. The note with it: 72 h. It counts as cell-based, Human. As to the method:
The incorporation and metabolism of resazurin to resorufin was used to monitor cell viability. MDA-MB-468, MCF7, and MDA-MB-231 cells were grown in 96-well plates with a total of 5000 cells per well in a total volume of 180 μL for 24 h, as described above. After 24 h of growth, cells were treated with increasing concentrations of compounds (0.0457–100 μM) for 72 h. A vehicle control was also performed. […] The volume of treatment added to each well was 20 μL. For folinic acid rescue experiments, 5000 cells were treated with 10 μM compound with or without 300 μg/mL folinic acid (Supelco). After 72 h of treatment, resazurin was added to a final concentration of 44 μM, and cells were incubated for an additional 4 h at 37 °C. The fluorescence of resorufin was monitored on a Synergy MX microplate reader (BioTek) using an excitation wavelength of 540 nm and an emission wavelength of 600 nm. Percent viability relative to the DMSO control was determined. Each treatment was performed in triplicate, and each individual experiment was repeated three times (n = 3).

Another assay addresses T1, purified human DHFR (Homo sapiens, UniProt P00374).
T1 construct: made in house; host or cells: E. coli BL21 (DE3) T1R pRARE2, pNIC-Bsa4 plasmid
T1 sequence (P00374 1-187): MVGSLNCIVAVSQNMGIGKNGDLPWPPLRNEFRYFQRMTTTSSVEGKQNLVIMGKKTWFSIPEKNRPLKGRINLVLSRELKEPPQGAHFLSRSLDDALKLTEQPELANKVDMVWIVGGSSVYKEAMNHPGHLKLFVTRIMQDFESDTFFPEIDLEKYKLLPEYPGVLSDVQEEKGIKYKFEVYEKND
The experiment in a line: DHFR enzymatic inhibition assay (NADPH absorbance at 340 nm). It counts as biochemical. The note with it: 137.5 μM DHF, 125 μM NADPH, n = 2. As for the experimental part: Working stocks of each inhibitor were created so that the final concentration of DMSO in each reaction was 2% in a final reaction volume of 100 μL. […] Reactions were prepared on ice in 384-well plates. […] Consumption of NADPH by measuring absorbance at 340 nm was used to monitor the progress of the reaction. Readings were taken every 5 min for 1 h at 37 °C using a Synergy MX microplate reader (BioTek).
Percent inhibition relative to the no-inhibitor control was determined using Equation (1). (1) % Inhibition=A340Inhibitor−A340DMSO Control/A340No DHFR−A340DMSO Control×100
Percent inhibition data were then fit to the four-parameter logistic model (Equation (2)) in GraphPad Prism 9.4.1 to determine half-maximal inhibitory concentrations (IC50):(2) y=Bottom+Top−Bottom/1+IC50/x^Hill slope where y represents the percent inhibition, x represents the concentration of inhibitor (μM), the bottom and top represent the bottom and top plateaus, and the Hill slope represents the slope factor. Each experiment contained duplicates of each sample, and each experiment was performed 2 times (n = 2). An ordinary one-way ANOVA was used to test for statistical significance between treatments.

Each structure is given as a SMILES string. Where two headings read alike, the source gives them in different places. Bounds are passed on as bounds.

By IC50 is commonly meant the midpoint of a concentration-inhibition curve. Consider `CC1(C)N=C(N)N=C(N)N1c1ccc(CCCCc2ccc(S(=O)(=O)F)cc2)c(Cl)c1` [compound 127159], for which, in the assay on leukemia, the “Anti-leukemic activity in vivo” value is “promising anti-leukemic activity in vivo”. The “Relative Viability (%) – Inhibitor + FA Treatment” value with MCF-7 cells (MCF-7, 10 μM + 300 μg/mL folinic acid) is on record as 99.99 ± 3.2%. Also, in the assay with MCF-7 cells (MCF-7, 10 μM, relative to DMSO), the “Relative Viability (%) – Inhibitor Alone” value is listed as 67.68 ± 13.3%. The IC50 on purified human DHFR (200 nM DHFR, read-out: IC50) was 750 ± 320 nM; at purified human DHFR (IC50, 200 nM DHFR), under 1000 nM.
